{"source": "patent US20130004581A1", "about": "“CONTROLLING UPTAKE BY CELLS” (Ramot at Tel-Aviv University Ltd., priority 2010, published 2013)", "test_system": "erythrocytes (RBCs)", "experiment": "Proton induced uptake and efflux in erythrocytes (RBCs), flow cytometry", "assay_type": "cell-based", "procedure": "As shown, PIU in erythrocytes depends on external pH in a constant rate. […] Flow cytometry analyses include FITC intensity geometrical mean±SD presented as fold induction relative to background. n=9 in 3 independent experiments.\nRBCs were exposed to external pH 5.4 for time durations of 10, 15, 30, 45 and 60 minutes. […] Flow cytometry analyses in terms of geometrical mean±SD are presented as fold induction relative the fluorescent intensity in the first group (10 min). No statistical difference is found in PIU rate for the different groups (p >0.05 by one way ANOVA, n=9 in 3 independent experiments).\nFlow cytometry analyses include FITC intensity geometrical mean±SD presented as fold induction relative to background. n=9 in 3 independent experiments.\nThe cells were washed and divided into 2 groups, suspended in fresh solution of either pH 7.4 or pH 5.4. Cells from each group were incubated for durations of 10, 20, 30, 45 and 60 minutes, before being analyzed by flow cytometry. Results given in terms of geometrical mean±SD are presented as fold induction relative to cells analyzed immediately following exposure to low pH. n=8 in 2 independent experiments.\nFollowing treatment the cells were washed in PBS-G and analyzed by flow cytometry. Results are presented as geometrical mean of FITC intensity±SD for 50,000 cells per sample.\nThis apparent saturation may be attributed to a competitive efflux process. […] Next, the cells were washed and re-suspended in fresh PBS-G of either pH 7.4 or 5.4, in the absence of dextran and then incubated at 37° C. for durations of 10, 20, 30, 45 and 60 minutes, followed by flow cytometry analysis (FIG. 32B). Dextran concentrations in RBCs incubated under physiological conditions (pH 7.4) suffers some gradual 20% decrease in value for 60 minutes after PIPC(P<0.05, one tail t-test). However, when RBCs are incubated at pH 5.4, the dextran concentration decline rapidly during the first 10 minutes, losing 50% of their initial value after 20 minutes and continue to decrease at a declining rate for the rest of the period monitored. It appears that long exposure of RBCs to low pH inflict some damage to the cells ability to retain the uptake cargo molecule (FIG. 32b). In an exemplary embodiment of the invention, RBCs are instead subjected to a pulsed treatment regime. […] In an exemplary embodiment of the invention, pulsed uptake is used to avoid/reduce causing leakage in cells and thus reduce efflux. Optionally or alternatively, cells that are sensitive to low pH can be treated. For example, one hour exposures separated by two hour rest periods may be used for siRNA transfection of pH-sensitive cells. […]"}
{"substance": "Dextran-FITC", "values": [{"measurement": "external pH at which uptake is significant relative to autofluorescence at pH 7.4", "setting": "70 kD dextran-FITC 10 μM, 5 minutes, P<0.05", "result": "< 6", "unit": "pH"}, {"measurement": "loss of initial intracellular dextran concentration after loading", "setting": "incubated at pH 5.4, 37° C., after 20 minutes", "result": 50, "unit": "%"}, {"measurement": "decrease of intracellular dextran concentration after loading", "setting": "incubated at pH 7.4, 37° C., 60 minutes after 10 minutes loading at pH 5.4", "result": 20, "unit": "%"}, {"measurement": "intracellular concentration after three cycles of 10 minutes exposure versus one exposure of 30 minutes", "setting": "low pH solution, cycles separated by washing and 10 minutes in PBS-G", "result": "higher concentration"}]}
